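Assay format: 96-well plates, 48-hour exposure. GI50 = concentration required for 50% inhibition of growth.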 Activity calls are given as the source filed them. Rule as the data show it: active = GI50 up to about 1.1 µM and inactive = higher.
What was measured:
Experiment in all cases: DTP human tumour cell line panel, 48 h
ACHN = system: ACHN
NCI-H23 = system: NCI-H23
IGROV-1 = system: IGROV-1
NCI-H460 = system: NCI-H460
OVCAR-4 = system: OVCAR-4
TK-10 = system: TK-10
MDA-MB-435 = system: MDA-MB-435
SNB-75 = system: SNB-75
SK-MEL-28 = system: SK-MEL-28
SNB-19 = system: SNB-19
HCT-15 = system: HCT-15
SK-OV-3 = system: SK-OV-3
A498 = system: A498
EKVX = system: EKVX
UO-31 = system: UO-31
MDA-N = system: MDA-N
M14 = system: M14
SK-MEL-5 = system: SK-MEL-5
NCI-H226 = system: NCI-H226

Structure (SMILES) | GI50 (ACHN) | GI50 (NCI-H23) | GI50 (IGROV-1) | GI50 (NCI-H460) | GI50 (OVCAR-4) | GI50 (TK-10) | GI50 (MDA-MB-435) | GI50 (SNB-75) | GI50 (SK-MEL-28) | GI50 (SNB-19) | GI50 (HCT-15) | GI50 (SK-OV-3) | GI50 (A498) | GI50 (EKVX) | GI50 (UO-31) | GI50 (MDA-N) | GI50 (M14) | GI50 (SK-MEL-5) | GI50 (NCI-H226)
c1ccc(CCCN2C3CCC2CN(CCOC(c2ccccc2)c2ccccc2)C3)cc1 | 13.4 µM (inactive) | 11.1 µM (inactive) | 13.8 µM (inactive) | 8.75 µM (inactive) | 10.2 µM (inactive) | 12.5 µM (inactive) | 12.4 µM (inactive) | 5.41 µM (inactive) | 13.3 µM (inactive) | 14.6 µM (inactive) | 4.72 µM | 13.7 µM (inactive) | 10.1 µM (inactive) | 7.46 µM (inactive) | 12.2 µM (inactive) | 13.2 µM (inactive) | 4.99 µM (inactive) | 3.3 µM (inactive) | 11.3 µM (inactive)
Cn1ncc2c(NCCc3ccccc3)nc(Cl)nc21 | 28.6 µM (inactive) | 24.8 µM (inactive) | 33.1 µM (inactive) | 15.6 µM (inactive) | 18.8 µM (inactive) | 20.9 µM (inactive) | 20.6 µM (inactive) | 21.1 µM (inactive) | 28.7 µM (inactive) | 44.9 µM (inactive) | 25.4 µM | 19.5 µM (inactive) | 17.7 µM (inactive) | 1.75 µM (inactive) | 19 µM (inactive) | 23.2 µM (inactive) | 15 µM (inactive) | 17.6 µM (inactive) | 21.5 µM (inactive)
O=C(COc1ccc(OCC(=O)N2C(=O)CC(=O)N(c3ccc(Cl)cc3)C2=S)cc1)N1C(=O)CC(=O)N(c2ccc(Cl)cc2)C1=S | 27.4 µM (inactive) | 25.8 µM (inactive) | 10.8 µM (inactive) | 29.2 µM (inactive) | 33.6 µM (inactive) | 37.3 µM (inactive) | 32 µM (inactive) | 72.9 µM (inactive) | 50.4 µM (inactive) | 26.9 µM (inactive) | 24.3 µM | 35.4 µM (inactive) | 47.3 µM (inactive) | 42.2 µM (inactive) | 31.7 µM (inactive) | 28.1 µM (inactive) | 32 µM (inactive) | 29.7 µM (inactive) | 26.6 µM (inactive)
COc1ccc(C2SC(=N)Nc3c2c(C)nn3C(=O)c2ccncc2)cc1 (stereo not given) | > 100 µM (inactive) | > 100 µM (inactive) | 89.5 µM (inactive) | 42.3 µM (inactive) | 43.3 µM (inactive) | > 100 µM (inactive) | 70.6 µM (inactive) | > 100 µM (inactive) | > 100 µM (inactive) | > 100 µM (inactive) | > 100 µM | > 100 µM (inactive) | 98.4 µM (inactive) | > 100 µM (inactive) | > 100 µM (inactive) | > 100 µM (inactive) | > 100 µM (inactive) | 45.7 µM (inactive) | > 100 µM (inactive)
O=C(CCCCCCCCC(=O)NN1C(=O)/C(=C\c2ccc(O)c(O)c2)SC1c1c(O)ccc2ccccc12)NN1C(=O)C(=Cc2ccc(O)c(O)c2)SC1c1c(O)ccc2ccccc12 (stereo not given) | 4.8 µM (inactive) | 9.35 µM (inactive) | 8.51 µM (inactive) | 4.62 µM (inactive) | 5.16 µM (inactive) | > 50.7 µM (inactive) | > 27.2 µM (inactive) | 60.4 µM (inactive) | 10 µM (inactive) | 22.6 µM (inactive) | 4.66 µM | 6.28 µM (inactive) | 22.8 µM (inactive) | 7.59 µM (inactive) | 3.39 µM (inactive) | > 41.7 µM (inactive) | 5.02 µM (inactive) | 1.93 µM (inactive) | 6.08 µM (inactive)
CC[N+]1(C)CCC(O)(/C=C/c2ccc(OC)cc2)C(C(=O)/C=C/c2ccc(OC)cc2)C1 (stereo not given) | 8.36 µM (inactive) | 16.2 µM (inactive) | 21.8 µM (inactive) | 9.53 µM (inactive) | 24.7 µM (inactive) | 2.96 µM (inactive) | 12.5 µM (inactive) | 18.9 µM (inactive) | 15.3 µM (inactive) | 17.3 µM (inactive) | 9.98 µM | 19.1 µM (inactive) | 16.7 µM (inactive) | 28.6 µM (inactive) | 12.6 µM (inactive) | 12.3 µM (inactive) | 10.4 µM (inactive) | 14.7 µM (inactive) | 28 µM (inactive)
c1ccc(CC(Nc2cccnc2)c2ccccc2)cc1 (stereo not given) | 37.7 µM (inactive) | 26.7 µM (inactive) | 31 µM (inactive) | 23 µM (inactive) | 25.7 µM (inactive) | 32.2 µM (inactive) | 22.9 µM (inactive) | 24.9 µM (inactive) | 31 µM (inactive) | 30.8 µM (inactive) | 30.3 µM | 31.7 µM (inactive) | 34 µM (inactive) | 24.2 µM (inactive) | 19.7 µM (inactive) | 20.1 µM (inactive) | 17.9 µM (inactive) | 15.7 µM (inactive) | 24.2 µM (inactive)
COc1ccc2c(c1)c(=O)c1c(NCCNCCO)ccc3c(=O)n(CCN(C)C)c(=O)n2c31 | 0.027 µM (active) | 0.0637 µM (active) | 0.0279 µM (active) | < 0.0202 µM (active) | 0.0895 µM (active) | 0.187 µM (active) | 0.103 µM (active) | 0.0933 µM (active) | 0.475 µM (active) | 0.07 µM (active) | 0.23 µM | 0.251 µM (active) | 0.116 µM (active) | 0.0889 µM (active) | 0.182 µM (active) | 0.112 µM (active) | 0.27 µM (active) | 0.0562 µM (active) | 0.148 µM (active)
c1ccc2sc(SSSc3nc4ccccc4s3)nc2c1 | > 100 µM (inactive) | > 100 µM (inactive) | > 100 µM (inactive) | 44.7 µM (inactive) | > 100 µM (inactive) | > 100 µM (inactive) | > 100 µM (inactive) | > 100 µM (inactive) | > 100 µM (inactive) | > 100 µM (inactive) | 27.7 µM | > 100 µM (inactive) | > 100 µM (inactive) | > 100 µM (inactive) | > 100 µM (inactive) | > 100 µM (inactive) | > 100 µM (inactive) | > 100 µM (inactive) | > 100 µM (inactive)
Oc1ccc(O)c(CNc2ccc(C(O)C(F)(F)F)cc2)c1 (stereo not given) | 13.7 µM (inactive) | 21.4 µM (inactive) | 12.9 µM (inactive) | 21.5 µM (inactive) | 16.3 µM (inactive) | 17.8 µM (inactive) | 11.9 µM (inactive) | 12.2 µM (inactive) | 31.6 µM (inactive) | 44.9 µM (inactive) | 13.7 µM | 44.3 µM (inactive) | 41.4 µM (inactive) | 14.5 µM (inactive) | 10.3 µM (inactive) | 9.86 µM (inactive) | 14.8 µM (inactive) | 29.3 µM (inactive) | 18.4 µM (inactive)
CC(=O)Nc1ccc(C(=O)NN2C(=O)CSC2c2ccc([N+](=O)[O-])cc2)cc1 (stereo not given) | > 100 µM (inactive) | > 100 µM (inactive) | > 100 µM (inactive) | > 100 µM (inactive) | > 100 µM (inactive) | > 100 µM (inactive) | > 100 µM (inactive) | > 100 µM (inactive) | > 100 µM (inactive) | > 100 µM (inactive) | > 100 µM | > 100 µM (inactive) | > 100 µM (inactive) | > 100 µM (inactive) | > 100 µM (inactive) | > 100 µM (inactive) | > 100 µM (inactive) | > 100 µM (inactive) | > 100 µM (inactive)
CCOC(=O)C1(Cc2ccccc2)CCN(C(=O)c2ccccc2)C2C1C2(Cl)Cl (stereo not given) | 21.6 µM (inactive) | 23.5 µM (inactive) | 31.2 µM (inactive) | 16.8 µM (inactive) | 26 µM (inactive) | 24.4 µM (inactive) | 21.1 µM (inactive) | 23.1 µM (inactive) | 21.1 µM (inactive) | 36.1 µM (inactive) | 27.8 µM | 28.6 µM (inactive) | 18.8 µM (inactive) | 19.3 µM (inactive) | 28.4 µM (inactive) | 17.9 µM (inactive) | 18.3 µM (inactive) | 15.9 µM (inactive) | 23.6 µM (inactive)
O=C(NC(Cc1c[nH]cn1)C(=O)N1CCCC1)C1CCCC1 (stereo not given) | > 100 µM (inactive) | > 100 µM (inactive) | > 100 µM (inactive) | > 100 µM (inactive) | > 100 µM (inactive) | > 100 µM (inactive) | > 100 µM (inactive) | > 100 µM (inactive) | > 100 µM (inactive) | > 100 µM (inactive) | > 100 µM | > 100 µM (inactive) | 37.9 µM (inactive) | > 100 µM (inactive) | > 100 µM (inactive) | > 100 µM (inactive) | > 100 µM (inactive) | > 100 µM (inactive) | > 100 µM (inactive)
Nc1n[n+]([O-])c2cc([N+](=O)[O-])ccc2[n+]1[O-] | 3.35 µM (inactive) | 13.8 µM (inactive) | 2.87 µM (inactive) | 3.31 µM (inactive) | 3.43 µM (inactive) | 30.2 µM (inactive) | 1.75 µM (inactive) | 26.7 µM (inactive) | 29 µM (inactive) | 13.6 µM (inactive) | 3.14 µM | 10.5 µM (inactive) | 15.9 µM (inactive) | > 10 µM (inactive) | 10.5 µM (inactive) | 2.07 µM (inactive) | 4.84 µM (inactive) | 7.71 µM (inactive) | 15.5 µM (inactive)
O=c1c(Cc2cccc(Cc3c(O)oc4ccccc4c3=O)c2)c(O)oc2ccccc12 | > 100 µM (inactive) | > 100 µM (inactive) | > 100 µM (inactive) | > 100 µM (inactive) | > 100 µM (inactive) | > 100 µM (inactive) | > 100 µM (inactive) | 43 µM (inactive) | > 100 µM (inactive) | > 100 µM (inactive) | > 100 µM | > 100 µM (inactive) | > 100 µM (inactive) | > 100 µM (inactive) | > 100 µM (inactive) | > 100 µM (inactive) | > 100 µM (inactive) | > 100 µM (inactive) | > 100 µM (inactive)

From ChEMBL document CHEMBL1201862, “PubChem BioAssay data set” (2004)
